# Paper PMC7804942, “The amphibian peptide Yodha is virucidal for Zika and dengue viruses” (Scientific Reports, 2021)
# pIC50: −log10 of the molar value. Read-outs that look alike come from different tables or passages of the source. Where a SMILES comes first, the peptide text is derived from it.
# Experiments:
# ZIKV = assay: Post-infection treatment of ZIKV-infected Vero cells, FFU assay of supernatants; type: cell-based, Zika virus; settings: 40 µM peptide added after infection, FFU of supernatant
# Description: Next, we determined whether the observed Yodha peptide-induced decrease in viral titers was due to blocked viral entry. We reasoned that if the peptide directly kills or disrupts the envelope structure of ZIKV, this would prevent virus entry. To test this, we designed an experiment to measure virus entry, by allowing ZIKV to bind cells at 4 °C for 1 h followed by shifting the cells to 37 °C to permit virus entry (Fig. 2A). It has been shown that DENV2 entry occurs within 25 min by early endosome trafficking. Briefly, we exposed ZIKV to Yodha peptide and then allowed the virus to infect Vero cells for 30 min. We then measured viral RNA within the Vero cells by quantitative Real Time-PCR (qRT-PCR) (Fig. 2B). […] Next, we visualized ZIKV entry or lack thereof by immunofluorescence using antibodies against pan flavivirus E protein. […] We collected culture supernatants at 3, 24, 48, and 72 h after ZIKV infection to quantitate ZIKV by FFU assay (Fig. 2E). ZIKV was not detected at 3 h post-infection in both OVA- or Yodha-treated cells. […]
# Figure 2 Yodha peptide inhibits ZIKV entry into cells. […] (B) ZIKV was treated with 200 µM of Yodha or control OVA peptide for 30 min and then used to infect Vero cells at a MOI of 0.5 and expression of ZIKV RNA was determined by quantitative RT-PCR (qRT-PCR). […] Error bars indicate the SEM of four technical replicates statistical significance was assessed by a 2-way ANOVA.
# MR766 ZIKV strain = assay: ZIKV MR766 infection of IFNAR KO mice, morbidity; type: in vivo, mouse; settings: MR766, peptide-treated vs control group
# Description: To assess morbidity, we switched to IFNAR KO mice and infected them with the MR766 ZIKV strain.
# All mouse studies were approved by the IACUC of Emory University. C57BL/6 mice were purchased from The Jackson Laboratory. All mice were maintained in specified pathogen-free in accordance with the institutional guidelines of Emory University’s Animal Care and Use Committee. All control and experimental mice were age- and sex-matched. For viral titer assessment, Wild-type C57BL/6 J mice were injected with 2 mg of an anti-Ifnar1 blocking antibody (MAR1-5A3) by the intraperitoneal route 24hrs prior to infection. Mice were anesthetized with isoflurane and inoculated by the subcutaneous route into both rear footpads with 5 × 10^4 PFU of ZIKV PRVABC59 (1 × 10^5 PFU total inoculum per mouse) in a 20µL inoculum diluted in Hanks balanced salt solution (HBSS) supplemented with 1% heat-inactivated FBS. For analysis of morbidity by ZIKV viral infection, we infected 5- to 6-week-old IFNAR KO mice with ZIKV MR766 (100 PFU total inoculum per mouse). Mice were monitored daily for morbidity and mortality.
# ZIKV (PRVABC59) = assay: ZIKV entry, immunofluorescence of flavivirus E protein in Vero cells; type: cell-based, Zika virus; settings: ZIKV exposed to peptide, then Vero cells infected for 30 min
# Description: Next, we determined whether the observed Yodha peptide-induced decrease in viral titers was due to blocked viral entry. We reasoned that if the peptide directly kills or disrupts the envelope structure of ZIKV, this would prevent virus entry. To test this, we designed an experiment to measure virus entry, by allowing ZIKV to bind cells at 4 °C for 1 h followed by shifting the cells to 37 °C to permit virus entry (Fig. 2A). It has been shown that DENV2 entry occurs within 25 min by early endosome trafficking. Briefly, we exposed ZIKV to Yodha peptide and then allowed the virus to infect Vero cells for 30 min. We then measured viral RNA within the Vero cells by quantitative Real Time-PCR (qRT-PCR) (Fig. 2B). […] Next, we visualized ZIKV entry or lack thereof by immunofluorescence using antibodies against pan flavivirus E protein. […] Next, we sought to determine if Yodha peptide could reduce infectious virus production in cells already infected with ZIKV. Briefly, we infected Vero cells, allowed virus attachment and entry, and then added Yodha peptide to the culture medium at 1, 24, 48, and 72 h post-infection. We collected culture supernatants at 3, 24, 48, and 72 h after ZIKV infection to quantitate ZIKV by FFU assay (Fig. 2E). ZIKV was not detected at 3 h post-infection in both OVA- or Yodha-treated cells. […]
# ZIKV (PRVABC59 strain) = settings: for reduction of ZIKV: dose escalation
# Description: We screened frog skin peptides to identify peptides with potentially virucidal activity against ZIKV infection. Briefly, we incubated individual peptides with ZIKV (PRVABC59 strain) for 2 h and then tested viral viability in a focus-forming assay. […] A significant drawback of host defense peptides is that they can be toxic to mammalian cells. To identify non-toxic candidates among the 12 peptides, we measured the toxicity of each peptide against human erythrocytes. […] The C-terminus of Yodha peptide contains three negatively charged amino acids.
# […] This incubated mixture was used to infect Vero cells for 1.5 h at 37 °C. Cells and inoculum were overlaid with 2% methylcellulose solution (OptiMEM; Gibco) and incubated for 72 h at 37 °C. Cells were washed with PBS and fixed with a 1:1 methanol/acetone mixture for 30 min. Cells were blocked with 5% milk/PSB at room temperature for 20 min and incubated with primary antibody (anti-flavivirus mouse 4G2[10] antibody) for 2 h at 37 °C. Then, cells were incubated with secondary antibody (HRP-conjugated goat anti-mouse IgG, Cell Signaling) for 1 h at 37 °C. Cells were developed with TrueBlue Peroxidase Substrate (KPL). Plates were read on a CTL-ImmunoSpot S6 Micro analyzer.
smiles,measurement,setting,value
CC[C@H](C)[C@H](NC(=O)[C@@H](NC(=O)CNC(=O)[C@H](CC(C)C)NC(=O)[C@H](Cc1ccccc1)NC(=O)[C@H](Cc1ccccc1)NC(=O)[C@H](CC(C)C)NC(=O)[C@H](CC(C)C)NC(=O)[C@H](CC(C)C)NC(=O)[C@H](CCSC)NC(=O)[C@@H](N)CO)[C@@H](C)O)C(=O)N[C@@H](CO)C(=O)N[C@@H](CC(C)C)C(=O)N[C@@H](CO)C(=O)N[C@@H](CC(C)C)C(=O)N[C@@H](CS)C(=O)N[C@@H](CCC(N)=O)C(=O)N[C@@H](CC(=O)O)C(=O)N[C@@H](CC(=O)O)C(=O)N[C@@H](CCC(N)=O)C(=O)N[C@@H](CCC(=O)O)C(=O)N[C@@H](CCCNC(=N)N)C(=O)N[C@@H](CS)C(=O)O [Yodha] (H-SMLLLFFLGTISLSLCQDDQERC-OH; N-terminus and C-terminus assumed),reduction in ZIKV production,ZIKV; 48 h post-infection,60–70%
same,reduction in ZIKV production,ZIKV; 72 h post-infection,60–70%
same,weight changes,MR766 ZIKV strain,did not observe any differences
same,survival,MR766 ZIKV strain; data not shown,did not observe any differences
same,expression of ZIKV envelope in cells (immunofluorescence),ZIKV (PRVABC59),decreased expression of ZIKV envelope
same,reduction of ZIKV,"ZIKV (PRVABC59 strain); 10 µM peptide, FFA",35%
same,reduction of ZIKV,"ZIKV (PRVABC59 strain); 20 µM peptide, FFA",50%
same,Viral titers (FFU) after timed exposure,"ZIKV (PRVABC59 strain); 20 µM peptide, exposure 5 min, 15 min, 30 min, 1 h and 2 h, all time points",significantly decreased
same,reduction of ZIKV,"ZIKV (PRVABC59 strain); 40 µM peptide, FFA",65%
same,inhibition of ZIKV strain,"ZIKV (PRVABC59 strain); 50 µM and 100 µM peptide vs OVA control, FFA",inhibited
same,reduction of ZIKV,"ZIKV (PRVABC59 strain); 80 µM peptide, FFA",80%
same,reduction of ZIKV,"ZIKV (PRVABC59 strain); 160 µM peptide, FFA",90%
same,pIC50,"ZIKV (PRVABC59 strain); PRVABC59 strain, 2 h",4.70
same,time of exposure needed to neutralize / destroy ZIKV,ZIKV (PRVABC59 strain); exposure of virus to peptide,≤ 5 min
